{"source": "patent EP0840781B1", "about": "“METHODS AND DEVICES FOR THE REMOVAL OF PSORALENS FROM BLOOD PRODUCTS” (Cerus Corporation, priority 1995, dated 1996)", "key": {"[1]": {"test_system": "H9 cells chronically infected with HIVIIIB", "assay": "Inactivation of cell-associated HIV in platelet concentrate, HIV microplaque assay", "type": "cell-based", "conditions": "150 µM in platelet concentrate; for logs of HIV inactivated (cell-associated): 3 Joules/cm^2, starting log titer 6.1 (Compound 2) or 6.6 (Compound 18); for log inactivation of HIV, dark control: no UVA", "experimental": "H9 cells chronically infected with HIVIIIB were used. (H9/HTLV-III-B NIH 1983 Cat.#400). Cultures of these cells were maintained in high glucose Dulbecco Modified Eagle Medium supplemented with 2 mM L-glutamine, 200 u/mL penicillin, 200 µg/ml streptomycin, and 9% fetal bovine serum (Intergen Company, Purchase, N.Y.) For maintenance, the culture was split once a week, to a density of 3 x 10^5 to 4 x 10^5 cells/ml and about four days after splitting, 3.3% sodium bicarbonate was added as needed. For the inactivation procedure, the cells were used three days after they were split. They were pelleted from their culture medium at 400 g x 10 minutes, the supernatant was discarded, and the cells were resuspended in one to five day old human platelet concentrate (PC) (pH 7.5-6.5), to a concentration of 2 x 10^6 cells/ml. Aliquots of the PC-infected cell suspension were made for psoralen free dark controls, for psoralen free UVA only controls, for psoralen dark controls, and for the psoralen plus UVA experimental sample. Concentrated filter-sterilized stock solutions of each psoralen in water were diluted into the appropriate aliquots to yield a final concentration of 150 µM. […] After an equilibration period of thirty minutes at room temperature, 0.5 ml of each of the dark controls was placed in a cryovial and stored in the dark at -80° C. For UVA illumination, 8 ml of the psoralen free aliquot and 8 ml of each psoralen containing aliquot were introduced into a modified F1 20 Teflon™ bag (modified to be 92 cm^2 total surface area. The West Co., Phoenixvill, PA) via a plastic disposable 10 ml syringe attached to one of the polypropylne ports on the bag. This gave an average path length of 0.17 cm. The bags were then illuminated for a total exposure of 3 Joules/cm^2 in the device described in Example 1, above, attached to a circulating refrigerating water bath set at 4° C. which maintains the temperature in the bag at approximately 22-25° C. During exposure, the device was shaken on a platelet shaker (Helmer Labs, Noblesville, IN). After exposure, the contents of the bags were withdrawn by a fresh syringe through the remaining unused port on the bag, and placed in cryovials for storage in the dark at […] until analysis.\nClot removal from each sample was performed before plating."}, "[2]": {"test_system": "platelet concentrate", "assay": "pO2, pCO2 and bicarbonate concentration of platelet concentrate", "type": "cell-based, human", "conditions": "T = test unit (150 µM S-59, 3 Joules/cm^2 UVA, RD 8 hours on day 1)", "experimental": "In addition to the data summarized in Table E, measurements of pH, pO2, and pCO2 were taken over a five-day storage period. No significant differences between the treated and control units were observed. Finally, it should be noted that these experiments were performed with standard Amberlite™ resins (i.e., resins which were not treated by Supelco, Inc.).\n(§1) For the evaluation of in vitro platelet function, platelet samples were withdrawn from both the control and test units before treatment and after treatment on days 2, 5, and 7. The following parameters were analyzed: pH, pO2, pCO2, bicarbonate concentration, platelet count, morphology, aggregation, platelet shape change, hypotonic shock response, lactate production, glucose consumption, ATP secretion, p-selectin expression, and microvesicle formation. Several of these assays, including pH, morphology score, platelet shape change, and hypotonic shock response, have been reported in the literature to correlate with in- vivo post-transfusion recovery and survival. The Student's paired t-test was used for statistical analysis."}, "[3]": {"test_system": "platelets", "assay": "Platelet shape change", "type": "cell-based, human", "conditions": "T = test unit (150 µM S-59, 3 Joules/cm^2 UVA, RD 8 hours on day 1)", "experimental": "Platelets are able to regain their ability to change shape following transfer from the RD and incubation in a PL 2410 Plastic container (Baxter) in an equal volume of autologous plasma.\nas §1"}, "[4]": {"test_system": "platelets suspended in 35% plasma/65% PAS III", "assay": "Partitioning and distribution of S-59 in platelet concentrate before and after UVA (3H-S-59, HPLC)", "conditions": "C0 = 50 µM (FIG. 25A)", "source_text": "[…] When designing a \"capture\" or \"scrub\" device for psoralen removal, an important consideration is the identification and quantification of the residual levels of low molecular weight photoproducts. Several properties of the platelet mixture (e.g., lipid content, platelet content, hemoglobin/RBC content) can affect the final partitioning of psoralen and the amount of each photoproduct that must be removed during the capture or scrub process.\nUpon addition of S-59 to platelets, the S-59 rapidly partitions, establishing an equilibrium between S-59 in the plasma and S-59 within the platelets. […] In addition, higher percentages of S-59 will partition to the platelets if long incubation periods (e.g., greater than 60 minutes) occur between the addition of S-59 and illumination with UVA. The amount of S-59 which partitions to the platelets ultimately determines how much S-59 remains associated with platelets, how much is associated with plasma macromolecules, and how much remains as free photoproduct.\nDuring the UVA illumination process, S-59 undergoes a photochemical reaction to form several low molecular weight photoproducts in addition to associating with macromolecules in both the platelet and the plasma fractions. […]\nThe S-59 which is not amenable to removal by the scrub/capture process can also be monitored using ^3H-labeled S-59. […]"}, "[5]": {"test_system": "platelet concentrate", "assay": "Maintenance of pH of platelet concentrate", "type": "cell-based, human", "conditions": "T = test unit (150 µM S-59, 3 Joules/cm^2 UVA, RD 8 hours on day 1)", "experimental": "To measure the effects of the present compounds and methods of decontamination on platelet function using these four indicators, four samples were prepared for each compound tested, two control samples and two containing compound. […] These were each transferred under sterile conditions to 50 ml centrifuge tubes, then aliquots of each unit were transferred into a second set of 50 ml sterile centrifuge tubes. […] The samples were pipetted gently up and down to mix. […] Samples were treated in one of two different sized bags, having either 3 ml or 8 ml capacity. […] For each compound tested, two control samples without compound were prepared by again removing aliquots of platelet concentrate (17 ml if using an 8 ml bag, 4 ml if using a 3 ml bag) from the same one of the first set of 50 ml centrifuge tubes from which the compound sample was drawn, and dividing into Medibags, as before. […]"}}}
{"smiles": "Cc1cc(=O)oc2c(C)c3oc(COCCN)c(C)c3cc12", "note": "[Compound 18, 5'-(4-amino-2-oxa)butyl-4,4',8-trimethylpsoralen]", "values": [{"measurement": "logs of HIV inactivated (cell-associated)", "setting": "[1]", "result": "> 7.2", "unit": "logs"}, {"measurement": "log inactivation of HIV, dark control", "setting": "[1]", "result": 0, "unit": "logs"}]}
{"smiles": "Cc1oc2c(C)c3oc(=O)cc(C)c3cc2c1COCCN", "note": "[Compound 2, 4'-(4-amino-2-oxa)butyl-4,5',8-trimethylpsoralen]", "values": [{"measurement": "Bicarbonate", "setting": "[2]; Day 2", "result": "6.3 ± 0.3", "unit": "mM"}, {"measurement": "pCO2", "setting": "[2]; Day 2", "result": "29.2±3.8", "unit": "mm Hg"}, {"measurement": "pO2", "setting": "[2]; Day 2", "result": "68.3±19.4", "unit": "mm Hg"}, {"measurement": "Bicarbonate", "setting": "[2]; Day 5", "result": "4.8 ± 0.5", "unit": "mM"}, {"measurement": "pCO2", "setting": "[2]; Day 5", "result": "23.7±3.5", "unit": "mm Hg"}, {"measurement": "pO2", "setting": "[2]; Day 5", "result": "84.8±22.5", "unit": "mm Hg"}, {"measurement": "Bicarbonate", "setting": "[2]; Day 7", "result": "4.2 ± 0.7", "unit": "mM"}, {"measurement": "pCO2", "setting": "[2]; Day 7", "result": "20.7±2.4", "unit": "mm Hg"}, {"measurement": "pO2", "setting": "[2]; Day 7", "result": "88.8±20.2", "unit": "mm Hg"}, {"measurement": "Platelet Shape Change", "setting": "[3]; Day 2", "result": "1.0±0.1"}, {"measurement": "Platelet Shape Change", "setting": "[3]; Day 5", "result": "0.9±0.1"}, {"measurement": "Platelet Shape Change", "setting": "[3]; Day 7", "result": "0.9±0.3"}, {"measurement": "time to S-59 equilibrium (uptake by platelets)", "setting": "[4]", "result": "approximately two"}, {"measurement": "pH", "setting": "[5]; Day 2", "result": "6.94±0.05"}, {"measurement": "pH", "setting": "[5]; Day 5", "result": "6.92±0.06"}, {"measurement": "pH", "setting": "[5]; Day 7", "result": "6.91±0.05"}, {"measurement": "logs of HIV inactivated (cell-associated)", "setting": "[1]", "result": "> 6.7", "unit": "logs"}, {"measurement": "log inactivation of HIV, dark control", "setting": "[1]", "result": 0, "unit": "logs"}]}
